Source: US9567586B2, “EpCAM aptamer for detection of cancer stem cells” (DEAKIN UNIVERSITY, priority 2012, dated 2017)

How the values were obtained:
MCF7/ADR tumour = assay: Xenotransplantation-LDA of in vivo treated MCF7/ADR tumours; settings: 1 nmole chimera, 5 mg/kg Dox, Day 50
Method: An orthotopic breast cancer model was established by implanting 3×10^6 MCF7/ADR cells (mixed with Matrigel) per site in NOD-SCID mice. When tumours reached a volume of ˜200 mm^3, we started treatment via tail vein injection. The mice (n=5) were treated at Day 1, 3, 5, with i.v. (bolus) injection of 1 nmole of EpCAM aptamer-siRNA chimera; and Day 2, 4, 6, with i.v. (bolus) injection of 5 mg/kg doxorubicin. The animals were euthanized on Day 10 and tumours harvested and subjected to xenotransplantation and in vivo extreme limiting dilution analysis.

[1] = system: PLC/PRF/5 hepatocellular carcinoma cell line; assay: Tumoursphere formation in 96-well, PLC/PRF/5; format: cell-based, human
MCF7/ADR cells = assay: Tumourigenicity ex vivo: treated MCF7/ADR cells xenotransplanted, extreme limiting dilution; format: in vivo, NOD/SCID mice; settings: 20 nM chimera, 300 nM Dox, Day 40
Method: The inventor hypothesized that the CSC-targeted delivery of survivin siRNA would make CSC sensitive to Dox. Indeed, after treatment (without transfection reagent) with 20 nM chimera plus 300 nM Dox for 72 h, there was a ˜80% reduction in the number of mammospheres in both the first and second round of tumoursphere assays (not shown), indicating a significant portion of cancer stem cells had been eliminated. The inventor further confirmed the effect of the chimera plus Dox on cancer stem cells' tumourigenicity by xenotransplanting treated cells into the 4th inguinal mammary fat pads of NOD/SCID mice coupled with an extreme limiting dilution analysis to assess CSC frequency (at Day 40 alter implantation) (Table 6).

HT29 cells = assay: Tumour formation ex vivo: in vitro treated HT29 cells xenotransplanted; parameters: species or system NOD/SCID mice; settings: cells treated 3 μM, 5 days, Day 50
Description: As sphere formation is a surrogate assay for in vivo tumourigenicity, the inventor examined whether the in vitro treated cells could generate tumours upon xenotransplantation. […] As shown in FIG. 12 and Table 4, free Dox-treated cells formed tumours in every mouse studied but no tumour was detected in mice cells (Table 4) at Day 50 after receiving aptamer-Dox-treated tumour implantation.

HT29 cell populations = assay: Extreme limiting dilution/xenotransplantation assay (ELDA) of treated HT29 tumours; format: in vivo, NOD/SCID mice; settings: 9 weeks after inoculation
Description: The inventor first studied whether the aptamer-Dox conjugate could efficiently target tumour in vivo via live animal imaging with an on-site IVIS Lumina II imaging station. […] The ability of aptamer-Dox to target CSC was further tested in vivo using the gold standard extreme limiting dilution/xenotransplantation assay (ELDA). To this end, the inventor injected 1×10^6 HT29 cells s.c. into NOD/SCID mice. When tumours reached a size of 3 mm, the mice were randomized and treated serially for 3 days at a daily dose of 5 mg/Kg of either free Dox, EpCAM aptamer-Dox or control aptamer-Dox via tail vein injection. Mice were sacrificed one week after the last treatment. […] The experiment as repeated and single cell suspensions prepared from the treated tumours (as in FIG. 14) and ELDA (Extreme limiting dilution analysis) performed to assess the effect on CSC frequency.

HT29 spheres = assay: FACS analysis of CSC markers in treated HT29 spheres; format: cell-based, human; settings: HT29 spheres after treatment
Description: Salinomycin (Sal), known to target CSC^23, was used as a positive control to validate our assays.

MCF-7/ADR tumours = assay: CSC marker status in in vivo treated MCF-7/ADR tumours (flow cytometry); parameters: species or system mice; settings: treated 3 times in a week; 1 nmol PEG-chimera, 5 mg/kg doxorubicin; n=8
Method: A 20-kDa PEG was attached to the 5′-end of siRNA-aptamer-chimera in order to extend its systemic circulation time. […] Day 2 after the last (third) treatment, tumours were removed, its weight determined and the percentage of breast cancer stem cell marker (EpCAM^+/CD44^+/CD24^−) positive cells in the treatment groups and various control groups was studied via flow cytometray.
MCF-7/ADR tumours ([…]) were treated 3 times in a week with 1 nmol PEG-chimera+5 mg/kg doxorubicin. Single cell suspension was prepared for flow cytometry (n=8). Remarks

HT29 colon cancer cells = assay: Tumoursphere formation in 96-well, HT29; format: cell-based, human; settings: 5 days; for Number of wells with sphere: HT29, 3 μM Dox equivalent
Method: Under non-adherent and serum-free conditions, only the cancer stem cells (CSCs) and progenitor cells survive and undergo self-renewal as well as proliferate to form tumour spheres. The inventor studied the ability of aptamer-Dox to target cancer stem cells by plating various cell doses of single-cell suspension of HT29 colon cancer cells in ultra-low attachment 96-wells in the presence of 3 μM of free Dox, 3 μM equivalent Dox conjugated with aptamer, 3 μM Dox-negative control aptamer or vehicle control for 5 days. Tumour spheres (with a size >50 μm) were enumerated.

## COc1cccc2c1C(=O)c1c(O)c3c(c(O)c1C2=O)C[C@@](O)(C(=O)CO)C[C@@H]3O[C@H]1C[C@H](N)[C@H](O)[C@H](C)O1 [Free Dox, doxorubicin]
MCF7/ADR tumour; 0.5 × 10^6 cells injected
  No. of tumours/no. of mice: 0/4
MCF7/ADR tumour; 1 × 10^6 cells injected
  No. of tumours/no. of mice: 1/4
MCF7/ADR tumour; 3 × 10^6 cells injected
  No. of tumours/no. of mice: 3/4
MCF7/ADR tumour; 5 × 10^6 cells injected
  No. of tumours/no. of mice: 4/4
[1]; 1 cell seeded/well
  Number of wells with sphere: 0/10
[1]; 10 cells seeded/well
  Number of wells with sphere: 10/10
[1]; 100 cells seeded/well
  Number of wells with sphere: 10/10
[1]; 200 cells seeded/well
  Number of wells with sphere: 10/10
MCF7/ADR cells; 0.5 × 10^6 cells injected
  No. of tumours/no. of mice: 0/5
MCF7/ADR cells; 1 × 10^6 cells injected
  No. of tumours/no. of mice: 1/5
MCF7/ADR cells; 3 × 10^6 cells injected
  No. of tumours/no. of mice: 3/5
MCF7/ADR cells; 5 × 10^6 cells injected
  No. of tumours/no. of mice: 5/5
HT29 cells; 1 × 10^5 cells injected
  No. tumour/No. mice: 5/5
HT29 cells; 1 × 10^6 cells injected
  No. tumour/No. mice: 5/5
HT29 cell populations; 1 × 10^4 cells injected
  No. tumour/No. mice: 0/6
HT29 cell populations; 1 × 10^5 cells injected
  No. tumour/No. mice: 6/6
HT29 cell populations; 1 × 10^6 cells injected
  No. tumour/No. mice: 6/6
HT29 spheres
  EpCAM^high/CD44^high/CD24^high cells: 91%
MCF-7/ADR tumours
  Percentage EpCAM+/CD44+/CD24−: 11.6
HT29 colon cancer cells; 3 μM Dox
  effect on HT29 tumour sphere formation (in words): no effect
HT29 colon cancer cells; 1 cell seeded/well
  Number of wells with sphere: 0/10
HT29 colon cancer cells; 10 cells seeded/well
  Number of wells with sphere: 10/10
HT29 colon cancer cells; 100 cells seeded/well
  Number of wells with sphere: 10/10
HT29 colon cancer cells; 200 cells seeded/well
  Number of wells with sphere: 10/10
